Assays:
Assay in all cases: Herbicidal activity, upland test, pre-emergence
Format in all cases: in vivo
DIGSA = test system: DIGSA
Outline: (§1)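 Percent control (0–100, visual) at 21 d after a soil spray applied one day post-sowing; generally 4.0 kg/ha and submultiples, acetone/water vehicle with Tween 20.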

ECHOR = test system: ECHOR
Outline: as §1

GLXMX = test system: GLXMX
Outline: as §1

AESIN = test system: AESIN
Outline: as §1

TRZAW = test system: TRZAW
Outline: as §1

ABUTH = test system: ABUTH
Outline: as §1

ORYSA = test system: ORYSA
Outline: as §1

GOSHI = test system: GOSHI
Outline: as §1

CCON=C(CC)C1=C(O)CC(c2c(C)c(C)c3c(c2C)CC(C)(C)C3)CC1=O (stereo not drawn) [Compound 2]
40 % inhibition: Herbicidal activity, ECHOR (ECHOR; 0.063 kg/ha)
60 % inhibition: Herbicidal activity, DIGSA (DIGSA; 0.063 kg/ha) | Herbicidal activity, ORYSA (ORYSA; 1.250 kg/ha)
0 % inhibition: Herbicidal activity, DIGSA (DIGSA; 0.016 kg/ha) | Herbicidal activity, ECHOR (ECHOR; 0.016 kg/ha) | Herbicidal activity, GLXMX (GLXMX; 0.016 kg/ha) | Herbicidal activity, GLXMX (GLXMX; 0.063 kg/ha) | Herbicidal activity, GLXMX (GLXMX; 1.000 kg/ha) | Herbicidal activity, GLXMX (GLXMX; 1.250 kg/ha) | Herbicidal activity, AESIN (AESIN; 0.016 kg/ha) | Herbicidal activity, AESIN (AESIN; 0.063 kg/ha) | Herbicidal activity, AESIN (AESIN; 1.000 kg/ha) | Herbicidal activity, AESIN (AESIN; 1.250 kg/ha) | Herbicidal activity, TRZAW (TRZAW; 0.016 kg/ha) | Herbicidal activity, TRZAW (TRZAW; 0.063 kg/ha) | Herbicidal activity, ABUTH (ABUTH; 0.016 kg/ha) | Herbicidal activity, ABUTH (ABUTH; 0.063 kg/ha) | Herbicidal activity, ABUTH (ABUTH; 1.000 kg/ha) | Herbicidal activity, ABUTH (ABUTH; 1.250 kg/ha) | Herbicidal activity, ORYSA (ORYSA; 0.016 kg/ha) | Herbicidal activity, ORYSA (ORYSA; 0.063 kg/ha) | Herbicidal activity, GOSHI (GOSHI; 0.016 kg/ha) | Herbicidal activity, GOSHI (GOSHI; 0.063 kg/ha) | Herbicidal activity, GOSHI (GOSHI; 1.000 kg/ha) | Herbicidal activity, GOSHI (GOSHI; 1.250 kg/ha)
20 % inhibition: Herbicidal activity, TRZAW (TRZAW; 1.250 kg/ha)
100 % inhibition: Herbicidal activity, DIGSA (DIGSA; 1.000 kg/ha) | Herbicidal activity, DIGSA (DIGSA; 1.250 kg/ha) | Herbicidal activity, ECHOR (ECHOR; 1.000 kg/ha) | Herbicidal activity, ECHOR (ECHOR; 1.250 kg/ha) | Herbicidal activity, ORYSA (ORYSA; 1.000 kg/ha)
80 % inhibition: Herbicidal activity, TRZAW (TRZAW; 1.000 kg/ha)

CCCC(=NOC)C1=C(O)CC(c2c(C)c(C)c3c(c2C)CC(C)(C)C3)CC1=O (stereo not drawn) [Compound 6]
30 % inhibition: Herbicidal activity, ORYSA (ORYSA; 0.063 kg/ha) | Herbicidal activity, ORYSA (ORYSA; 1.250 kg/ha)
20 % inhibition: Herbicidal activity, TRZAW (TRZAW; 1.250 kg/ha)
60 % inhibition: Herbicidal activity, DIGSA (DIGSA; 1.250 kg/ha) | Herbicidal activity, TRZAW (TRZAW; 1.000 kg/ha)
100 % inhibition: Herbicidal activity, DIGSA (DIGSA; 1.000 kg/ha) | Herbicidal activity, ECHOR (ECHOR; 1.000 kg/ha)
0 % inhibition: Herbicidal activity, DIGSA (DIGSA; 0.016 kg/ha) | Herbicidal activity, DIGSA (DIGSA; 0.063 kg/ha) | Herbicidal activity, ECHOR (ECHOR; 0.016 kg/ha) | Herbicidal activity, ECHOR (ECHOR; 0.063 kg/ha) | Herbicidal activity, GLXMX (GLXMX; 0.016 kg/ha) | Herbicidal activity, GLXMX (GLXMX; 0.063 kg/ha) | Herbicidal activity, GLXMX (GLXMX; 1.000 kg/ha) | Herbicidal activity, GLXMX (GLXMX; 1.250 kg/ha) | Herbicidal activity, AESIN (AESIN; 0.016 kg/ha) | Herbicidal activity, AESIN (AESIN; 0.063 kg/ha) | Herbicidal activity, AESIN (AESIN; 1.000 kg/ha) | Herbicidal activity, AESIN (AESIN; 1.250 kg/ha) | Herbicidal activity, TRZAW (TRZAW; 0.016 kg/ha) | Herbicidal activity, TRZAW (TRZAW; 0.063 kg/ha) | Herbicidal activity, ABUTH (ABUTH; 0.016 kg/ha) | Herbicidal activity, ABUTH (ABUTH; 0.063 kg/ha) | Herbicidal activity, ABUTH (ABUTH; 1.000 kg/ha) | Herbicidal activity, ABUTH (ABUTH; 1.250 kg/ha) | Herbicidal activity, ORYSA (ORYSA; 0.016 kg/ha) | Herbicidal activity, GOSHI (GOSHI; 0.016 kg/ha) | Herbicidal activity, GOSHI (GOSHI; 0.063 kg/ha) | Herbicidal activity, GOSHI (GOSHI; 1.000 kg/ha) | Herbicidal activity, GOSHI (GOSHI; 1.250 kg/ha)
50 % inhibition: Herbicidal activity, ECHOR (ECHOR; 1.250 kg/ha)
80 % inhibition: Herbicidal activity, ORYSA (ORYSA; 1.000 kg/ha)

CCC(=NOC)C1=C(O)CC(c2c(C)c(C)c3c(c2C)CC(C)(C)C3)CC1=O (stereo not drawn) [Compound 1]
30 % inhibition: Herbicidal activity, DIGSA (DIGSA; 0.063 kg/ha) | Herbicidal activity, ECHOR (ECHOR; 0.063 kg/ha) | Herbicidal activity, ORYSA (ORYSA; 0.063 kg/ha)
60 % inhibition: Herbicidal activity, TRZAW (TRZAW; 1.000 kg/ha)
20 % inhibition: Herbicidal activity, TRZAW (TRZAW; 1.250 kg/ha)
80 % inhibition: Herbicidal activity, ECHOR (ECHOR; 1.250 kg/ha)
100 % inhibition: Herbicidal activity, DIGSA (DIGSA; 1.000 kg/ha) | Herbicidal activity, ECHOR (ECHOR; 1.000 kg/ha) | Herbicidal activity, ORYSA (ORYSA; 1.000 kg/ha) | Herbicidal activity, ORYSA (ORYSA; 1.250 kg/ha)
70 % inhibition: Herbicidal activity, DIGSA (DIGSA; 1.250 kg/ha)
0 % inhibition: Herbicidal activity, DIGSA (DIGSA; 0.016 kg/ha) | Herbicidal activity, ECHOR (ECHOR; 0.016 kg/ha) | Herbicidal activity, GLXMX (GLXMX; 0.016 kg/ha) | Herbicidal activity, GLXMX (GLXMX; 0.063 kg/ha) | Herbicidal activity, GLXMX (GLXMX; 1.000 kg/ha) | Herbicidal activity, GLXMX (GLXMX; 1.250 kg/ha) | Herbicidal activity, AESIN (AESIN; 0.016 kg/ha) | Herbicidal activity, AESIN (AESIN; 0.063 kg/ha) | Herbicidal activity, AESIN (AESIN; 1.000 kg/ha) | Herbicidal activity, AESIN (AESIN; 1.250 kg/ha) | Herbicidal activity, TRZAW (TRZAW; 0.016 kg/ha) | Herbicidal activity, TRZAW (TRZAW; 0.063 kg/ha) | Herbicidal activity, ABUTH (ABUTH; 0.016 kg/ha) | Herbicidal activity, ABUTH (ABUTH; 0.063 kg/ha) | Herbicidal activity, ABUTH (ABUTH; 1.000 kg/ha) | Herbicidal activity, ABUTH (ABUTH; 1.250 kg/ha) | Herbicidal activity, ORYSA (ORYSA; 0.016 kg/ha) | Herbicidal activity, GOSHI (GOSHI; 0.016 kg/ha) | Herbicidal activity, GOSHI (GOSHI; 0.063 kg/ha) | Herbicidal activity, GOSHI (GOSHI; 1.000 kg/ha) | Herbicidal activity, GOSHI (GOSHI; 1.250 kg/ha)

— patent publication US6096930A, “Herbicidal cyclohexane-1,3-dione derivatives and their preparation process” (Korea Research Institute of Chemical Technology, priority 1994, dated 2000)
